Reference: patent publication US20060019907A1, “Guggulsterone: an inhibitor of nuclear factor - kappaB and IkappaBalpha kinase activation and uses thereof” (Research Development Foundation, priority 2004, published 2006)

Tests used:
[1] = test system: inducible nitric oxide synthetase (iNOS); settings: Meselhy et al., 2003; cited from earlier work
STAT3 = assay: IL-6-inducible STAT3 phosphorylation in RPMI 8226 cells, Western blot; type: cell-based, human
Experimental: Western blot. For detection of STAT proteins, whole-cell extracts were prepared by lysing the guggulsterone-treated cells in lysis buffer (20 mM Tris, pH 7.4, 250 mM NaCl, 2 mM EDTA, pH 8.0, 0.1% Triton −X100, 0.01 mg/ml aprotinin, 0.005 mg/ml leupeptin, 0.4 mM PMSF, and 4 mM NaVO4). Lysates were then spun at 14,000 rpm for 10 min to remove insoluble material, and resolved on a 7.5% gel. After electrophoresis, the proteins were electrotransferred to a nitrocellulose membrane, blocked with 5% nonfat milk, and probed with anti-STAT antibodies (1:1000) overnight at 4° C. The blot was washed, exposed to HRP-conjugated secondary antibodies for 1 h, and finally examined by chemiluminescence (ECL, Amersham Pharmacia Biotech. Arlington Heights, Ill.).

RAW 264.7 cells [2] = assay: Osteoclast differentiation assay, RANKL-induced; type: cell-based, mouse; settings: RANKL 5 nM
Experimental: (§1) Osteoclast differentiation assay: […] cells were cultured in 24-well dishes at a density of 1×10^4 cells per well and were allowed to adhere overnight. Medium was then replaced and the cells were treated with 5 nM (˜100 ng/ml) RANKL. At different days, cultures were stained for TRAP expression using an acid phosphatase kit, and the total number of TRAP-positive multinucleated osteoclasts (>3 nuclei) per well were counted.
as §1, with “assay.” for “assay:”, “(100” for “(˜100”, “day 5,” for “different days,”, “expression as described (Shevde et al., 2000)” for “expression”, “(3” for “(>3”

RAW 264.7 cells [3] = assay: Tumor cell (MDA-MB-468, U266) co-incubation-induced osteoclastogenesis; type: cell-based, mouse; settings: RAW 264.7 co-incubation, GS 5 μM
IκBα = assay: RANKL-induced IκBα phosphorylation and degradation, Western blot; type: cell-based, mouse; settings: RAW 264.7
Experimental: Western blot analysis. To determine the levels of protein expression in the cytoplasm or nucleus, extracts were prepared (Majumder and Aggarwal, 2001) and fractionated by SDS-polyacrylamide gel electrophoresis (PAGE). After electrophoresis, the proteins were electrotransferred to nitrocellulose membranes, blotted with each antibody, and detected by ECL regent (Amersham, Piscataway, N.J.). The bands obtained were quantitated using NIH imaging software (NIH, Bethesda, Md.).

[4] = test system: COX-2, MMP-9, VEGF, cyclin D1, c-myc, cIAP1, xIAP, Bfl-1, BCL-2, TRAF1, cFLIP, survivin; assay: TNF-induced expression of NF-κB regulated gene products, Western blot; type: cell-based, human; settings: H1299, 50 μM, 0.1 nM TNF
Experimental: Western Blot Analysis: To determine the effect of guggulsterone on TNF-dependent IκBα phosphorylation, IκBα degradation, p65 translocation and p65 phosphorylation, cytoplasmic extracts were prepared as previously described (Majumdar et al., 2001) from H1299 (2×10^6/ml) pretreated with 50 μM guggulsterone for 4 h and then exposed to 0.1 nM TNF for various times. Thirty micrograms of cytoplasmic protein was resolved on 10% SDS-PAGE gel, transferred to a nitrocellulose membrane, blocked with 5% non-fat milk, and probed with specific antibody against IκBα, posphorylated IκBα, p65 and phosphorylated p65. To determine the expression of cyclin D1, COX-2, MMP-9, clAP-1, xlAP, TRAF1, Bcl-2, Bfl-1, cFLIP, and survivin, whole-cell extracts were prepared from treated cells (2×10^6 cells in 2 ml medium), 30-50 μg protein was resolved on SDS-PAGE gel and probed by Western blot with specific antibodies as per manufacturer's recommended protocol. The blots were washed, exposed to HRP-conjugated secondary antibodies for 1 hour, and finally detected by ECL reagent (Amersham Pharmacia Biotech.). The bands were quantitated using a Personal Densitometer Scan v1.30 using IMAGEQUANT™ software version 3.3 (Molecular Dynamics).

COX2 promoter = assay: COX-2 promoter-dependent reporter luciferase gene expression; type: cell-based, human; settings: 0.1 nM TNF 24 hours
Experimental: COX-2 Promoter-dependent Reporter Luciferase Gene Expression: COX-2 promoter activity was examined as described elsewhere (Shishodia et al., 2003). To further determine the effect of guggulsterone on COX-2 promoter, […] cells were seeded at a concentration of 1.5×10^5 cells per well in six-well plates. After overnight culture, the cells in each well were transfected with 2 μg DNA consisting of COX-2 promoter-luciferase reporter plasmid, along with 6 μl of LIPOFECTAMINETM 2000 (Life Technologies, Inc.) according to the manufacturer's protocol. The COX-2 promoter (-375 to +59), amplified from human genomic DNA by using the primers [NT] (sense) (SEQ ID NO:3) and [NT] (antisense) (SEQ ID NO:4), was provided by Dr. Xiao-Chun Xu (M.D. Anderson Cancer Center). After a 6 hour exposure to the transfection mixture, the cells were incubated in medium containing guggulsterone for 12 hours. The cells were exposed to TNF (0.1 nM) for 24 hours and then harvested. Luciferase activity is measured by using the Promega luciferase assay system according to the manufacturer's protocol and detected by using […] 2010 (Analytical Luminescence Laboratory, San Diego, Calif.).

JNK = JNK kinase assay; type: cell-based, human; settings: U937; 10 μM
Experimental: JNK kinase assay. To determine the effect of guggulsterone on the kinase activity of JNK, JNK complex from whole-cell extracts was precipitated with antibody against JNK1, followed by treatment with protein A/G-Sepharose beads (Pierce, Rockford, Ill.). After 2 h of incubation, the beads were washed with lysis buffer and then assayed in kinase assay mixture containing 50 mM HEPES (pH 7.4), 20 mM MgCl2, 2 mM dithiothreitol, 20 μCi of [γ-^32P]ATP, 10 μM unlabeled ATP, and 2 μg of substrate GST-c-Jun (1-79). The immunocomplex was incubated at 30° C. for 30 min and then boiled with SDS sample buffer for 5 min. Finally, the protein was resolved on 10% SDS-PAGE, the gel was dried, and the radioactive bands were visualized using the PhosphorImager. To determine the total amount of JNK1 in each sample, whole-cell extracts were subjected to Western blot analysis using anti-JNK1 antibody.

[5] = 50 μM, 4 h pre-incubation, 10 nM RANKL

SMILES: CC=C1C(=O)C[C@H]2[C@@H]3CCC4=CC(=O)CC[C@]4(C)[C@H]3CC[C@]12C [guggulsterone, 4,17(20)-pregnadiene-3,16-dione]
- iNOS expression induced by LPS in macrophages [1]: inhibiting inducible nitric oxide synthetase (iNOS) expression
- exposure time sufficient to completely suppress IL-6-induced STAT3 phosphorylation (STAT3; 25 μM): 4 h
- IL-6-induced STAT3 phosphorylation (STAT3; 25 μM, IL-6 10 ng/ml 10 min): blocked by guggulsterone in a time-dependent manner
- STAT3 phosphorylation by guggulsterone alone (STAT3; data not shown): had no effect on STAT3 phosphorylation
- number of RANKL-induced osteoclasts (RAW 264.7 cells [2]; 5 days, TRAP): the number of osteoclasts decreased with increasing concentration of GS
- RANKL-induced osteoclastogenesis, GS added 24 h after RANKL (RAW 264.7 cells [2]; GS 5 μM, 5 days): inhibited osteoclastogenesis even when the cells were exposed 24 h after the RANKL treatment
- RANKL-induced osteoclastogenesis, GS added 3 days after RANKL (RAW 264.7 cells [2]; GS 5 μM, 5 days): the inhibitory effect decreased significantly
- RANKL-induced osteoclastogenesis (Example 1) (RAW 264.7 cells [2]; guggulsterone 5 μM, TRAP staining): inhibits RANKL-induced NF-κB activation and osteoclastogenesis
- osteoclast differentiation induced by co-incubation of U266 cells with macrophages (RAW 264.7 cells [3]): induced osteoclast differentiation was suppressed
- MDA-MB-468 cells-induced and U266 cells-induced osteoclast differentiation (RAW 264.7 cells [3]; 5 days): suppressed osteoclastogenesis
- phosphorylation of IκBα by GS alone (IκBα): did not result in phosphorylation of IκBα
- RANKL-induced IκBα degradation (IκBα; [5]): suppressed RANKL-induced IκBα degradation
- RANKL-induced phosphorylation of IκBα (IκBα; [5]): eliminated the RANKL-induced phosphorylation
- expression of IκBα (IκBα to β-actin ratio) (IκBα; GS treatment): down-regulates the expression of IκBα
- TNF-induced COX-2, MMP-9 and VEGF expression ([4]; 4 h): abolished the TNF-induced expression of these gene products
- TNF-induced cyclin D1 and c-myc expression ([4]; 4 hours): abolished the expression of these gene products
- TNF-induced expression of cIAP1, xIAP, Bfl-1, BCL-2, TRAF1, cFLIP and survivin ([4]; 4 hours): this expression was inhibited
- TNF-induced COX2 promoter activity (COX2 promoter): abolished the COX2 promoter activity in a dose-dependent manner
- JNK activation (JNK): activation of JNK
